This note sets out measurements from patent publication US20160052926A1, “NOVEL PYRIMIDINE AND PYRIDINE COMPOUNDS AND USAGE THEREOF” (HUTCHISON MEDIPHARMA LIMITED, priority 2013, published 2016).

pIC50: −log10 of the molar value.

Test [1] addresses Recombinant human FGFR1 (Homo sapiens, UniProt P11362). Description: Transcreener Kinase Assay of FGFR1. Format: biochemical. Conditions: read-out: FGFR1 (FP) IC50.
The target of test [2] is Recombinant human FGFR2 (Homo sapiens, UniProt P21802). Description: Transcreener Kinase Assay of FGFR2. Format: biochemical. Conditions: read-out: FGFR2 (FP) IC50.
Test [3] concerns the target FGFR3 kinase (Homo sapiens, UniProt P22607). Description: Z-Lyte Kinase Assay of FGFR3. Format: biochemical. In short, it runs like this: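 FRET peptide-cleavage format: 1 h kinase reaction at RT (25-30[…]), then 1 h protease development, then stop and dual-emission read (Ex400, Em445/520 nm). Working solutions: kinase 0.7 μg/ml, Tyr 4 peptide 4 μM, ATP 300 uM in 1.33× buffer; eight compound concentrations from 1 μM, 2% DMSO final.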

The test system of test [4] is KG-1. Description: Cellular Proliferation Assay (Cell Counting Kit-8), KG-1. Conditions: Homo sapiens, KG1 cells, 72 hours. Type of test: cell-based. In a few lines: (§1)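 Proliferation was read as OD at 450 nm after 1 h with CCK-8, following 72 h drug exposure at 37 °C, 5% CO2. Inhibition was calculated against cells in 0.5% DMSO minus medium blank, and the 50% point reported. The compound series (10–0.004 μM, pre-addition, in 5% DMSO) was added one day after plating KG-1, SNU-16 and RT-112 at 30,000, 5,000 and 1,000 cells/well respectively.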
A general note: Formazan colour is commonly taken as a measure of viable cells.

The test system of test [5] is SNU-16. Description: Cellular Proliferation Assay (Cell Counting Kit-8), SNU-16. Conditions: Homo sapiens, SNU-16 cells, 72 hours. Format: cell-based. In short, it runs like this:
as §1

Test [6] relates to RT-112. Description: Cellular Proliferation Assay (Cell Counting Kit-8), RT-112. Format: cell-based. Conditions: Homo sapiens, RT-112 cells, 72 hours. The procedure: Cellular Proliferation Assay
• KG-1 (ATCC Accession No. CCL-246), • SNU-16 (ATCC Accession No. CRL-5974), • RT-112 (ECACC Accession No. 85061106)
• FGFR related cancer cell proliferation is measured in 96-well plates using Cell Counting Kit-8 (Dojindo CK04-13). • Seed 30000 cells/well of KG1, 5000 cells/well of SNU16, and 1000 cells/well of RT112 in a volume of 100 μL/well in growth media. • After 24 hours, dilute the compound to 10, 3.3, 1.1, 0.37, 0.12, 0.04, 0.013, 0.004 μM, keeping the DMSO concentration at 5%. • Add 10 μL of 8-point compound series to the wells of culturing cells. • Incubate at 37° C. and 5% CO2 for 72 hours • Add 10 μL/well of CCkit8 and incubate at 37° C. and 5% CO2 for an hour • Detect the optical density of each well at 450 nm on Labsystems Multiskan K3.
• ODcompound well represents the optical density of cells treated with compound. • ODcell well represents the optical density of cells without compounds treatment. (only 0.5% DMSO) • ODcontrol well represents the optical density of culture media background
The concentration of compound providing 50% of proliferation inhibition was calculated using Excel Fit.

Sequence of FGFR3 kinase (P22607 23-806): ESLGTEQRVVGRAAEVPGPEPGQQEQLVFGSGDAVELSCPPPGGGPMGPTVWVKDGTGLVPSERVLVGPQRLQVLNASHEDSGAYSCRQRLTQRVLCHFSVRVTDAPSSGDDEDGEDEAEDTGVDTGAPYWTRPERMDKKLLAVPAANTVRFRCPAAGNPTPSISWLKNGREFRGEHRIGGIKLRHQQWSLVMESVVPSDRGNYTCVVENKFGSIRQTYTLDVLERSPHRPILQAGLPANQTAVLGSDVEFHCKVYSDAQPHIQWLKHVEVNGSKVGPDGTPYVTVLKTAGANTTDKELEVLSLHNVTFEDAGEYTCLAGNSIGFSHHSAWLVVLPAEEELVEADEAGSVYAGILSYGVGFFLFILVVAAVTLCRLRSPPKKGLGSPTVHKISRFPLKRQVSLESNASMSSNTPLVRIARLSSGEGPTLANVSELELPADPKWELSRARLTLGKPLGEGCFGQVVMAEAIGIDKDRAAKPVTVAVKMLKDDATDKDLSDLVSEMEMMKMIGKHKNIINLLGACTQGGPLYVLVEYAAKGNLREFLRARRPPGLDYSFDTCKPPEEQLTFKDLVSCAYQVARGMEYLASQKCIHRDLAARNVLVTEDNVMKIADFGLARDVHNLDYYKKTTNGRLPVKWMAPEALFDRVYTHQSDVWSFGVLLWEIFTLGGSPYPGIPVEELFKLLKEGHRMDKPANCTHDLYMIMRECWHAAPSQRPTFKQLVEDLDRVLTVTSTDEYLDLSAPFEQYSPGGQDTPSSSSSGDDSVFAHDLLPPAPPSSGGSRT
Sequence of Recombinant human FGFR2 (P21802 22-821): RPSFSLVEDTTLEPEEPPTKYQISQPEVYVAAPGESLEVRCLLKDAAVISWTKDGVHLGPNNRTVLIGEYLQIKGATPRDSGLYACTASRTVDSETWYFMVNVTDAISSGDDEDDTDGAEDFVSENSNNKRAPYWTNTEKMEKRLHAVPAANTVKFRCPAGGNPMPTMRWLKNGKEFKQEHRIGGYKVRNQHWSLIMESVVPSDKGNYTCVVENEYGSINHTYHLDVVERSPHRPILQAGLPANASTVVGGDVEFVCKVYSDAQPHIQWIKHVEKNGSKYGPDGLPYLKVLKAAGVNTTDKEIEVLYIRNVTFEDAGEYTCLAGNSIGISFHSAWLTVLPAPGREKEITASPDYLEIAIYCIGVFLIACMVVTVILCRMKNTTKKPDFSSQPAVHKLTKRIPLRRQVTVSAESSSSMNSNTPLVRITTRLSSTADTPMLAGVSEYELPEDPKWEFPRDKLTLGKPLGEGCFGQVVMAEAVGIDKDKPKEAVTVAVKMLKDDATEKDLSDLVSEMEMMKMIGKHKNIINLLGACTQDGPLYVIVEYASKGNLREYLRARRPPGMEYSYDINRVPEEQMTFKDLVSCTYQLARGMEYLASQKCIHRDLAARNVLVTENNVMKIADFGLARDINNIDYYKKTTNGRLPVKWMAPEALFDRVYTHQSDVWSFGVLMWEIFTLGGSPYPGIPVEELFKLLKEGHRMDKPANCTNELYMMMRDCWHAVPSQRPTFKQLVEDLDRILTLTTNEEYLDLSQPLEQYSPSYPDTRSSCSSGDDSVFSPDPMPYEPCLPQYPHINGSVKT
Sequence of Recombinant human FGFR1 (P11362 22-822): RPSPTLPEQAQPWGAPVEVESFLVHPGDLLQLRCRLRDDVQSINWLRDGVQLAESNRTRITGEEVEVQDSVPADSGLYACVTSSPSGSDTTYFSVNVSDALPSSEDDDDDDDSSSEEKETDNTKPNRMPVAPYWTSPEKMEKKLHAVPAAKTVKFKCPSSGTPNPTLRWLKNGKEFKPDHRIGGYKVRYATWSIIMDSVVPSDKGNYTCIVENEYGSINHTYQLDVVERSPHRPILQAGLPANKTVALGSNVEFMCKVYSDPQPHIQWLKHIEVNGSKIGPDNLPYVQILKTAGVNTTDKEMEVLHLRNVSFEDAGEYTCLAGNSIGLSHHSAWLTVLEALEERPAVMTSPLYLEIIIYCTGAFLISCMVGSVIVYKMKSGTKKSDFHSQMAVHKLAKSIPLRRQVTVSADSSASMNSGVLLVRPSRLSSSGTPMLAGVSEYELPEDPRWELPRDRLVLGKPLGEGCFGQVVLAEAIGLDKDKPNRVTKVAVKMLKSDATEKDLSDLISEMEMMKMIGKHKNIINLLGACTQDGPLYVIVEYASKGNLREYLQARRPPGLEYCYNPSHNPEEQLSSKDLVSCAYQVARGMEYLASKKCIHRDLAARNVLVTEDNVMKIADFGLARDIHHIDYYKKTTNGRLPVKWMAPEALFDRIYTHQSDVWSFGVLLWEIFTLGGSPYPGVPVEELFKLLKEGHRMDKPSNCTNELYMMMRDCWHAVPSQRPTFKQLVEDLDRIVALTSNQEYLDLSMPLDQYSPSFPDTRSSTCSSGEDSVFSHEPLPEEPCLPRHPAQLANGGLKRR

Regarding `CCN(CC)CCn1cc(Nc2ncc(CCc3cc(C(=O)NC)cc(OC)c3Cl)cn2)cn1` [Compound 86], the pIC50 (as a rule, the IC50 on a negative log10 scale, so that one unit is a factor of ten) in test [1] was 7.77; in test [2], 8.00; in test [3], 8.00; in test [4], 7.38; in test [5] it was 7.80; in test [6], 7.92.
As for `CCN1CCN(c2ccc(Nc3ncc(/C=C/c4cc(C(=O)NC)cc(OC)c4F)cn3)cc2)CC1` [Compound 87], the pIC50 was 8.00 in test [1]; 8.00 in test [2]; 7.44 in test [3]; 7.60 in test [4]; 7.30 in test [5]; 7.08 in test [6].
For the molecule `CCN(CC)CCCn1cc(Nc2ncc(CCc3cc(C(=O)NC)cc(OC)c3Cl)cn2)cn1` [Compound 88], the pIC50 is 7.82 in test [1]; 8.22 in test [2]; 8.05 in test [3]; 6.67 in test [4]; 7.89 in test [5]; 7.57 in test [6].
For `CNC(=O)c1cc(CCc2cnc(Nc3cnn(CCN4CCN(C)CC4)c3)nc2)c(Cl)c(OC)c1` [Compound 89], the pIC50 in test [1] was 7.92; in test [2], 8.10; in test [3] it was 8.10; in test [4], 6.89; in test [5] it was 7.54; in test [6], 7.34.
For the molecule `CNC(=O)c1cc(CCc2cnc(Nc3ccc(C(=O)N4CCN(C)CC4)cc3)nc2)c(Cl)c(OC)c1` [Compound 90], the pIC50 in test [1] was 7.96; in test [2], 8.30; in test [3], 8.15; in test [4], 7.51; in test [5], 8.05; in test [6], 7.59.
Turning to `CNC(=O)c1cc(OC)c(Cl)c(CCc2cnc(Nc3ccc(N4C[C@@H](C)N[C@@H](C)C4)cc3)nc2)c1F` [Compound 91], the negative-log IC50 (pIC50) in test [1] was 7.70; in test [2], 7.80; in test [3], 7.77; in test [4] it was 7.49; in test [5], 7.72; in test [6] it was 7.19.
Turning to `CNC(=O)c1cc(CCc2cnc(Nc3ccc(CN4CCOCC4)cn3)nc2)c(F)c(OC)c1` [Compound 92, 4-fluoro-3-methoxy-N-methyl-5-(2-(2-((5-(morpholinomethyl)pyridin-2-yl)amino)pyrimidin-5-yl)ethyl)benzamide], the pIC50 was 6.79 in test [1]; 7.40 in test [2]; 6.70 in test [3]; 6.59 in test [4]; 6.62 in test [5]; 6.08 in test [6].
`CNC(=O)c1cc(CCc2cnc(Nc3cnc4ccnn4c3)nc2)c(F)c(OC)c1` [Compound 94]: the pIC50 in test [1] is 6.79; in test [2] it was 7.28; in test [3] it was 6.67; in test [4], 6.46; in test [5] it was 6.77; in test [6] it was 6.54.
Consider `CNC(=O)c1cc(CCc2cnc(Nc3ccc4ncnn4c3)nc2)c(F)c(OC)c1` [Compound 95], for which the pIC50 in test [1] is 7.47; in test [2], 7.92; in test [3], 7.48; in test [4], 7.36; in test [5], 7.48; in test [6], 7.14.
Regarding `CNC(=O)c1cc(CCc2cnc(Nc3ccc(CN4CCOCC4)cc3)nc2)c(F)c(OC)c1` [Compound 97], the pIC50 in test [1] is 7.96; in test [2], 8.22; in test [3] it was 7.92; in test [4], 7.59; in test [5], 7.66; in test [6] it was 6.80.
Consider `CNC(=O)c1cc(CCc2cnc(Nc3ccc(CN4CCOCC4)nc3)nc2)c(F)c(OC)c1` [Compound 98], for which the pIC50 in test [1] was 7.49; in test [2] it was 7.82; in test [3], 7.59; in test [4], 7.32; in test [5], 7.62; in test [6], 6.65.
For the molecule `CNC(=O)c1cc(CCc2cnc(Nc3ccc(CN4CCN(C)CC4)cc3)nc2)c(F)c(OC)c1` [Compound 99], the negative-log IC50 (pIC50) is 7.85 in test [1]; 8.15 in test [2]; 7.92 in test [3]; 7.52 in test [4]; 7.77 in test [5]; 6.96 in test [6].
As to `CCn1cc(Nc2ncc(CCc3cc(C(=O)NC)cc(OC)c3F)cn2)cn1` [Compound 100, 3-(2-(2-(1-ethyl-1H-pyrazol-4-ylamino)pyrimidin-5-yl)ethyl)-4-fluoro-5-methoxy-N-methylbenzamide], the pIC50 in test [1] was 7.92; in test [2], 8.30; in test [3], 7.89; in test [4], 7.68; in test [5], 7.62; in test [6] it was 7.03.
As for `CONC(=O)c1cc(CCc2cnc(Nc3cn[nH]c3)nc2)cc(OC)c1` [Compound 101], the pIC50 in test [1] was 8.10; in test [2], 8.40; in test [3], 7.82; in test [4], 7.66; in test [5] it was 7.38; in test [6], 6.59.
Consider `CNC(=O)c1cc(CCc2cnc(Nc3cn[nH]c3)nc2)c(F)c(OC)c1` [Compound 102], for which the pIC50 is 7.92 in test [1]; 8.15 in test [2]; 7.74 in test [3]; 7.48 in test [4]; 7.26 in test [5]; 6.34 in test [6].
With `CNC(=O)c1cc(CCc2ccc(Nc3cnn(C)c3)nc2)c(F)c(OC)c1` [Compound 103], the pIC50 was 7.49 in test [1]; 7.68 in test [2]; 7.33 in test [3]; 6.86 in test [4]; 6.86 in test [5]; 6.18 in test [6].
Take `CONC(=O)c1cc(CCc2cnc(Nc3ccc(F)cc3)nc2)cc(OC)c1` [Compound 104]: the pIC50 in test [1] is 7.82; in test [2], 8.05; in test [3] it was 7.36; in test [4] it was 7.28; in test [5] it was 7.42; in test [6] it was 6.85.
`CNC(=O)c1cc(CCc2cnc(Nc3cnn(C)c3C)nc2)c(F)c(OC)c1` [Compound 105]: the negative logarithm of the IC50 (pIC50) in test [1] was 7.51; in test [2], 7.96; in test [3], 7.52; in test [4], 6.70; in test [5], 7.32; in test [6] it was 6.37.
For the molecule `CNC(=O)c1cc(CCc2cnc(Nc3cnn(C4CC4)c3)nc2)c(F)c(OC)c1` [Compound 107], the pIC50 was 8.00 in test [1]; 8.15 in test [2]; 7.85 in test [3]; 7.55 in test [4]; 7.59 in test [5]; 7.05 in test [6].
On to `CONC(=O)c1cc(CCc2cnc(Nc3cnn(CCO)c3)nc2)cc(OC)c1` [Compound 108], for which the pIC50 is 8.30 in test [1]; 8.52 in test [2]; 8.00 in test [3]; 6.96 in test [4]; 6.95 in test [5]; 6.25 in test [6].
As for `CCn1ncc(Nc2ncc(CCc3cc(C(=O)NC)cc(OC)c3F)cn2)c1C` [Compound 110], the negative-log IC50 (pIC50) is 7.17 in test [1]; 7.85 in test [2]; 7.62 in test [3]; 7.02 in test [4]; 7.34 in test [5]; 6.71 in test [6].
Turning to `CCn1cc(Nc2ncc(CCc3cc(C(=O)NC)cc(OC)c3F)cn2)c(C)n1` [Compound 111], the pIC50 in test [1] is 6.97; in test [2], 7.48; in test [3], 7.21; in test [4], 6.79; in test [5], 6.90; in test [6], 6.24.
As to `CNC(=O)c1cc(CCc2cnc(Nc3cnn(C(C)C)c3)nc2)c(F)c(OC)c1` [Compound 112], the pIC50 in test [1] was 8.05; in test [2] it was 8.15; in test [3], 8.10; in test [4], 7.74; in test [5] it was 7.77; in test [6] it was 7.44.
In the case of `CNC(=O)c1cc(CCc2cnc(Nc3cnn(CCO)c3)nc2)c(F)c(OC)c1` [Compound 114], the pIC50 is 7.92 in test [1]; 8.30 in test [2]; 7.85 in test [3]; 7.15 in test [4]; 7.06 in test [5]; 6.23 in test [6].
